In patent US20230357271A1, “MACROCYCLIC COMPOUND” (Asahi Kasei Pharma Corporation, priority 2020, published 2023):

Experiments:
human IRAK-4 = human IRAK-4 (Homo sapiens (Human), UniProt Q9NWZ3); assay: Measurement of human IRAK-4 inhibitory activity (TR-FRET); type: biochemical; conditions: 1 nM IRAK-4, 0.5 µM peptide substrate, 10 µM ATP, 23° C., 30 minutes
Protocol: For the measurement of the activity of the human IRAK-4 (Invitrogen, Cat. PV3362), phosphorylation of the IRAK-4 peptide substrate (biotin-KKKKRFSFKKSFKC) by the enzyme in the presence of 10 µM ATP (Sigma-Aldrich, Cat. A7699) was measured by the TR-FRET method. The enzymatic reaction was performed in a reaction buffer containing 50 mM HEPES (pH 7.2), 1 mM DTT, 0.1 mM Na3VO4, 5 mM MgCl2, 1 mM MnCl2, and 0.1% bovine serum albumin. For the measurement of the IRAK-4 inhibitory activity, a test compound was added to the reaction buffer containing 1 nM IRAK-4, 0.5 µM peptide substrate, and 10 µM ATP, and the mixture was incubated at 23° C. for 30 minutes. Then, a detection solution containing an antibody labeled with europium cryptate (0.3 µg/mL, the antibody was prepared by using the IRAK-4 peptide substrate as the antigen), streptavidin-XL665 (2 µg/mL, CisBio, Cat. 610SAXLB), 50 mM HEPES (pH 7.2), 0.1% BSA, 120 mM KF, and 66.7 mM EDTA (all the concentrations of the reagents are final concentrations) was added to terminate the reaction, and then the mixture was further incubated at 23° C. for 60 minutes. Fluorescence intensity was measured at wavelengths of 665 nm and 620 nm with a microplate reader, and the enzymatic activity was calculated as the ratio of fluorescence intensities at 665 nm and 620 nm (665 nm/620 nm).
When the measurement was performed in multiplicate, the results are represented with average values.

[1] = test system: human acute monocytic leukemia cell strain THP-1; assay: LPS-stimulated TNFα production inhibition test using THP-1 cells; type: cell-based; conditions: Homo sapiens, THP-1, 4 h, LPS 2.5 ng/mL, TNFα by HTRF
Protocol: By the THP-1 assay, influence of a test compound on the TNFα production induced by LPS stimulation can be evaluated. The THP-1 cells (ATCC, Cat. TIB-202) were inoculated on a 96-well plate at a density of 1 × 10^5 cells/160 µL/well, a test compound was added in a volume of 20 µL, and the plate was incubated at 37° C. for 1 hour in a 5% CO2 incubator. Then, LPS in a volume of 20 µL (final concentration 2.5 ng/mL, Sigma, Cat. L2630) was added, and the plate was further incubated for 4 hours. After the incubation, the plate was centrifuged, and 100 µL of the supernatant was taken from each well, and used for evaluation of the amount of TNFα using HTRF (Cisbio, Cat. 62TNFPEB). In the measurement of the amount of TNFα, the supernatant was diluted twice with the medium, and then added to wells of a 384-well plate in a volume of 10 µL, then anti-TNFα-cryptate (5 µL), and anti-TNFα-XL665 (5 µL) were added, and the plate was left standing overnight. The fluorescence intensity ratio for the wavelengths of 620 and 665 nm (620 nm/665 nm) was measured with a microplate reader, and the amount of TNFα in the supernatant was calculated by using a calibration curve. The TNFα production suppression ratio observed with no addition of LPS was defined to be 100%, the TNFα production suppression ratio observed with no addition of the test compound was defined to be 0%, and IC50 of the test compound was calculated by using the 4-parameter logistic model of the data analysis software XLfit (ID Business Solutions Ltd.).
When the measurement was performed in multiplicate, the results are represented with average values. The values were rounded to the fourth decimal place.

human IRAK-4, sequence (Q9NWZ3 whole entry): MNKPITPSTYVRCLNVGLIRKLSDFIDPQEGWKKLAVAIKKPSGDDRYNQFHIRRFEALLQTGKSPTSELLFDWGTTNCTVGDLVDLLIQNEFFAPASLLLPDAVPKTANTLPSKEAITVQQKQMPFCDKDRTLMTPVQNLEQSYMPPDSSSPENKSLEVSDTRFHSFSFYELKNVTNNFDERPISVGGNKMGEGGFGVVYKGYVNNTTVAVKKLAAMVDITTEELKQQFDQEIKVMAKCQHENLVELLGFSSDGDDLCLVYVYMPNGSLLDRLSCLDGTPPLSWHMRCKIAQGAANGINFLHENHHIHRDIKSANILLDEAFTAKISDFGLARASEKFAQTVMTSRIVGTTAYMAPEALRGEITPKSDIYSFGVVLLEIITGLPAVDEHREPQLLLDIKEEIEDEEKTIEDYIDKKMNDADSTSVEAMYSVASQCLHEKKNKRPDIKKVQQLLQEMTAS

Row | IC50 (human IRAK-4) | IC50 [1] | SMILES
1 | 6.46 nM | 0.058 µM | CCCOCc1ncc(-c2ccc3ncc4cc3c2OCC(F)COC(=O)[C@@H]2C[C@H](CCN2C)N4)cn1 (stereo partly shown) [a-02-14]
2 | 2.96 nM | 0.043 µM | CCCOCc1ncc(-c2ccc3ncc4cc3c2OCCCOC(=O)[C@@H]2C[C@H](CCN2C)N4)cn1 [a-02-10]
3 | 4.19 nM | 0.177 µM | CN1CCCOc2c(-c3cncnc3)ccc3ncc(nc23)N[C@H]2CCN(C)[C@@H](C2)C1=O [a-01-34]
4 | 4.04 nM | 0.149 µM | Cc1ncc(-c2ccc3ncc4nc3c2OCC(F)(F)CNC(=O)[C@@H]2C[C@H](CCN2C)N4)cn1 [a-01-28]
5 | 2.47 nM | 0.023 µM | CCCOCc1ncc(-c2ccc3ncc4cc3c2OCCCOC(=O)[C@@H]2C[C@H](CCN2)N4)cn1 [a-02-05]
6 | 4.24 nM | 0.048 µM | CCCOCc1ncc(-c2ccc3ncc4nc3c2OCC2(CC2)CNC(=O)[C@@H]2C[C@H](CCN2C)N4)cn1 [a-01-04]
7 | 2.77 nM | 0.081 µM | CCCOCc1ncc(-c2ccc3ncc4nc3c2OCCCOC(=O)[C@@H]2C[C@H](CCN2C)N4)cn1 [a-01-15]
8 | 4.52 nM | 0.189 µM | CCCOCc1ncc(-c2ccc3ncc4nc3c2OCCC(CC)CNC(=O)[C@@H]2C[C@H](CCN2C)N4)cn1 (stereo partly shown) [a-01-37]
9 | 3.42 nM | 0.163 µM | CCCOCc1ncc(-c2ccc3ncc4nc3c2OCCC(F)CNC(=O)[C@@H]2C[C@H](CCN2C)N4)cn1 (stereo partly shown) [a-01-31]
10 | 6.73 nM | 0.199 µM | CCCOCc1ncc(-c2ccc3ncc4nc3c2OCCCN(C)C(=O)[C@@H]2C[C@H](CCN2C)N4)cn1 [a-01-38]
11 | 1.59 nM | 0.165 µM | CN1CC[C@H]2C[C@H]1C(=O)NCCCOc1c(-c3cnc(CO)nc3)ccc3ncc(nc13)N2 [a-01-32]
12 | 1.15 nM | 0.113 µM | Cc1ncc(-c2ccc3ncc4nc3c2OCC(F)COC(=O)[C@@H]2C[C@H](CCN2C)N4)cn1 (stereo partly shown) [a-01-20]
13 |  | 0.237 µM | CCCOCc1ncc(-c2ccc3ncc4nc3c2OCCC(C)NC(=O)[C@@H]2C[C@H](CCN2C)N4)cn1 (stereo partly shown) [a-01-43]
14 | 2.11 nM | 0.045 µM | CN1CC[C@H]2C[C@H]1C(=O)NCC1(CC1)COc1c(-c3cncnc3)ccc3ncc(nc13)N2 [a-01-03]
15 | 43.4 nM | 0.068 µM | CCCOCc1ncc(-c2ccc3ncc4nc3c2OCCCC2CCCN2C(=O)[C@@H]2C[C@H](CCN2C)N4)cn1 (stereo partly shown) [a-01-10]
16 | 4.14 nM | 0.15 µM | CN1CC[C@H]2C[C@H]1C(=O)NCC1(CCC1)COc1c(-c3cncnc3)ccc3ncc(nc13)N2 [a-01-29]
17 | 0.89 nM | 0.044 µM | CN1CC[C@H]2C[C@H]1C(=O)NCC1(CC1)COc1c(-c3cnc(CO)s3)ccc3ncc(nc13)N2 [a-01-02]
18 | 1.12 nM | 0.048 µM | Cc1ncc(-c2ccc3ncc4cc3c2OCC(F)CNC(=O)[C@@H]2C[C@H](CCN2C(C)C)N4)cn1 (stereo partly shown) [a-02-13]
19 | 5.73 nM | 0.036 µM | CCC(O)COCc1ncc(-c2ccc3ncc4cc3c2OCCCOC(=O)[C@@H]2C[C@H](CCN2C)N4)cn1 (stereo partly shown) [a-02-08]
20 | 1.66 nM | 0.081 µM | Cc1ncc(-c2ccc3ncc4cc3c2OCCCOC(=O)[C@@H]2C[C@H](CCN2)N4)cn1 [a-02-18]
21 | 1.09 nM | 0.013 µM | CCCOCc1ncc(-c2ccc3ncc4cc3c2OCC(F)CNC(=O)[C@@H]2C[C@H](CCN2C)N4)cn1 (stereo partly shown) [a-02-02, (3^2S,3^4S)-7-Fluoro-3^1-methyl-1^6-(2-(propoxymethyl)pyrimidin-5-yl)-9-oxa-2,5-diaza-1(3,5)-qunolina-3(4,2)-piperidinacyclononaphan-4-one]
22 |  | 0.5 µM | CCCOCc1ncc(-c2ccc3ncc4cc3c2OCCCNC(=O)[C@@H]2C[C@H](CCN2C)O4)cn1 [a-02-25, (3^2S,3^4S)-3^1-Methyl-1^6-(2-(propoxymethyl)pyrimidin-5-yl)-2,9-dioxa-5-aza-1 (3,5)-qunolina-3 (4,2)-piperidinacyclononaphan-4-one]
23 |  | 0.324 µM | Cc1ncc(-c2ccc3ncc4cc3c2CCCCNC(=O)[C@@H]2C[C@H](CC(C)N2C)N4)cn1 (stereo partly shown) [a-02-22]
